Square brackets hold non-standard residues; d marks the D form. Peptide text beside a SMILES is read from it. * marks the point of attachment. ξ: configuration not given here. Phe(4-tetrazol-5-yl) = N[C@@H](Cc1ccc(-c2nnn[nH]2)cc1)C(=O)O; Phe(4-COOH) = N[C@@H](Cc1ccc(C(=O)O)cc1)C(=O)O; pY = N[C@@H](Cc1ccc(OP(=O)(O)O)cc1)C(=O)O; X1 = NC(=O)[C@H](CO)NC[C@H](CC(=O)O)N*; ξA = CC(N)C(=O)O
Each compound was assayed against Signal transducer and activator of transcription 3 (Homo sapiens, UniProt P40763) (assay: Inhibition of Stat3 (Signal transduction and activator of transcription 3) dimerization measured by EMSAs (Electrophoretic mobility shift assay)).
Sequence of Signal transducer and activator of transcription 3 (P40763 whole entry): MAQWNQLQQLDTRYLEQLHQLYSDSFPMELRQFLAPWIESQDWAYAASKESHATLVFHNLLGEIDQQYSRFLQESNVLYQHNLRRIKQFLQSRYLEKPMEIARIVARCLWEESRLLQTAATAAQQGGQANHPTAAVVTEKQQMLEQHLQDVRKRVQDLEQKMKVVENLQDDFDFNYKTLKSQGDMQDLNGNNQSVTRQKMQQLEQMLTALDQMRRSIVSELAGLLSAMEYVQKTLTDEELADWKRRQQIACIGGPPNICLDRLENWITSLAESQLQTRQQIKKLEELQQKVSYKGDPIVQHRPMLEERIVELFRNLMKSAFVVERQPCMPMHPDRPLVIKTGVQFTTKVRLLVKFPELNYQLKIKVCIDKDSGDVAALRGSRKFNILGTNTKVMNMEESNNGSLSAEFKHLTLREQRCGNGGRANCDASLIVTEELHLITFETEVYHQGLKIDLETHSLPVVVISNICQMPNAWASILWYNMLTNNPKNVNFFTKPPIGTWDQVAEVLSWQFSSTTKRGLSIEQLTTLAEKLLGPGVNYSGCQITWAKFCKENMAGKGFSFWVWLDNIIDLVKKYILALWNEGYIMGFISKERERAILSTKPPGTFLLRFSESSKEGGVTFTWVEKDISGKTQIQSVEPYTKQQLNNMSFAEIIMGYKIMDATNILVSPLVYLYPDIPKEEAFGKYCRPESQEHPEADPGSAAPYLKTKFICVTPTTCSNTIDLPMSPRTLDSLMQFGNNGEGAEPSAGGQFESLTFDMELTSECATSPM
Compound `CC(=O)N[C@@H](Cc1ccc(C(=O)O)cc1)C(=O)N[C@@H](CC(C)C)C(=O)N1CCC[C@H]1C(=O)N[C@@H](CCC(N)=O)C(=O)N[C@H](C(=O)N[C@H](C(N)=O)C(C)C)[C@@H](C)O` (Ac-[Phe(4-COOH)]LPQTV-NH2) has an IC50 greater than 6 µM.
`CC(=O)N[C@@H](Cc1ccc(-c2nn[nH]n2)cc1)C(=O)N[C@@H](CC(C)C)C(=O)N1CCC[C@H]1C(=O)N[C@@H](CCC(N)=O)C(=O)N[C@H](C(=O)N[C@H](C(N)=O)C(C)C)[C@@H](C)O` (Ac-[Phe(4-tetrazol-5-yl)]LPQTV-NH2) showed an IC50 greater than 6 µM.
Work on `CC(=O)N[C@@H](Cc1ccc(OP(=O)(O)O)cc1)C(=O)N[C@@H](CC(C)C)C(=O)N1CCC[C@H]1C(N)=O` (Ac-[pY]-Leu-Pro-NH2) yielded an IC50 greater than 6 µM.
With `CC(=O)N[C@@H](Cc1ccc(OP(=O)(O)O)cc1)C(=O)N[C@@H](C)C(=O)N1CCC[C@H]1C(=O)N[C@@H](CCC(N)=O)C(=O)N[C@H](C(=O)N[C@H](C(N)=O)C(C)C)[C@@H](C)O` (Ac-[pY]APQTV-NH2) the IC50 was 1.6 µM.
`CC(=O)N[C@@H](Cc1ccc(OP(=O)(O)O)cc1)C(=O)N[C@@H](Cc1ccccc1)C(=O)N[C@@H](CCCCN)C(=O)N[C@@H](CCC(N)=O)C(=O)N[C@@H](CC(N)=O)C(=O)N[C@@H](CS)C(N)=O` (Ac-[pY]FKQNC-NH2) was tested, and the IC50 was 60 µM.
Work on `CSCC[C@H](NC(=O)[C@H](CCC(N)=O)NC(=O)[C@@H]1CCCN1C(=O)[C@H](CCCCN)NC(=O)[C@H](Cc1ccc(OP(=O)(O)O)cc1)NC(C)=O)C(=O)N[C@@H](Cc1cnc[nH]1)C(N)=O` (Ac-[pY]KPQMH-NH2) yielded an IC50 of 0.4 µM.
`CC(=O)N[C@@H](Cc1ccc(OP(=O)(O)O)cc1)C(=O)N[C@@H](CC(C)C)C(=O)N[C@@H](CCCCN)C(=O)N[C@@H](CCC(N)=O)C(=O)N[C@@H](CCC(=O)O)C(=O)N[C@@H](CO)C(N)=O` (Ac-[pY]LKQES-NH2) showed an IC50 of 6 µM.
For `CC(=O)N[C@@H](Cc1ccc(OP(=O)(O)O)cc1)C(=O)N[C@@H](CC(C)C)C(=O)N1CCC[C@H]1C(=O)N[C@@H](C)C(=O)N[C@H](C(=O)N[C@H](C(N)=O)C(C)C)[C@@H](C)O` (Ac-[pY]LPATV-NH2), the IC50 was greater than 6 µM.
`CC(=O)N[C@@H](Cc1ccc(OP(=O)(O)O)cc1)C(=O)N[C@@H](CC(C)C)C(=O)N1CCC[C@H]1C(=O)N[C@@H](CCC(=O)O)C(=O)N[C@H](C(=O)N[C@H](C(N)=O)C(C)C)[C@@H](C)O` (Ac-[pY]LPETV-NH2) was tested, and the IC50 was greater than 6 µM.
For `CC(=O)N[C@@H](Cc1ccc(OP(=O)(O)O)cc1)C(=O)N[C@@H](CC(C)C)C(=O)N1CCC[C@H]1C(=O)N[C@@H](CC(N)=O)C(=O)N[C@H](C(=O)N[C@H](C(N)=O)C(C)C)[C@@H](C)O` (Ac-[pY]LPNTV-NH2), the IC50 was 2 µM.
In the case of `CC(=O)N[C@@H](Cc1ccc(OP(=O)(O)O)cc1)C(=O)N[C@@H](CC(C)C)C(=O)N1CCC[C@H]1C(=O)N[C@@H](CCC(N)=O)C(=O)N[C@@H](C)C(=O)N[C@H](C(N)=O)C(C)C` (Ac-[pY]LPQAV-NH2), the IC50 is reported as 0.8 µM.
With `CC(=O)N[C@@H](Cc1ccc(OP(=O)(O)O)cc1)C(=O)N[C@@H](CC(C)C)C(=O)N1CCC[C@H]1C(=O)N[C@@H](CCC(N)=O)C(=O)N[C@H](C(=O)N[C@@H](C)C(=O)O)[C@@H](C)O` (Ac-[pY]LPQTA-OH) the IC50 was 0.4 µM.
Work on `CC(=O)N[C@@H](Cc1ccc(OP(=O)(O)O)cc1)C(=O)N[C@@H](CC(C)C)C(=O)N[C@@H](CCCN=C(N)N)C(=O)N[C@@H](CS)C(=O)N[C@H](CN[C@@H](CO)C(N)=O)CC(=O)O` (Ac-[pY]LRC-X1) yielded an IC50 of 80 µM.
`CC(=O)N[C@@H](Cc1ccc(OP(=O)(O)O)cc1)C(=O)N[C@@H](CC(C)C)C(=O)NC(C)C(=O)N[C@@H](CCC(N)=O)C(=O)N[C@H](C(=O)N[C@H](C(N)=O)C(C)C)[C@@H](C)O` (some centres not stated) (Ac-[pY]L[ξA]QTV-NH2) showed an IC50 of 4 µM.
Compound `CSCC[C@H](NC(=O)[C@H](Cc1ccc(OP(=O)(O)O)cc1)NC(C)=O)C(=O)N1CCC[C@H]1C(=O)N[C@@H](CCC(N)=O)C(N)=O` (Ac-[pY]MPQ-NH2) has an IC50 of 1.5 µM.
For `CC(=O)N[C@@H](Cc1ccc(OP(=O)(O)O)cc1)C(=O)N[C@@H](CCC(N)=O)C(=O)N[C@@H](CCCCN)C(=O)N[C@@H](CCC(N)=O)C(=O)N[C@H](C(=O)N[C@@H](CCCN=C(N)N)C(N)=O)[C@@H](C)O` (Ac-[pY]QKQTR-NH2), the IC50 was 8 µM.
`CC(=O)N[C@@H](Cc1ccc(OP(=O)(O)O)cc1)C(=O)N[C@@H](CCC(N)=O)C(=O)N1CCC[C@H]1C(=O)N[C@@H](CCC(N)=O)C(=O)N[C@@H](C)C(=O)N[C@@H](CCCCN)C(N)=O` (Ac-[pY]QPQAK-NH2) showed an IC50 of 6 µM.
In the case of `CC(=O)N[C@@H](Cc1ccc(OP(=O)(O)O)cc1)C(=O)N[C@@H](CCCN=C(N)N)C(=O)N[C@@H](Cc1cnc[nH]1)C(=O)N[C@@H](CCC(N)=O)C(=O)N[C@H](C(=O)N1CCC[C@H]1C(N)=O)C(C)C` (Ac-[pY]RHQVP-NH2), the IC50 is reported as 6 µM.
`CSCC[C@H](NC(=O)[C@H](C)NC(=O)[C@H](CCC(N)=O)NC(=O)[C@@H]1CCCN1C(=O)[C@H](CCCN=C(N)N)NC(=O)[C@H](Cc1ccc(OP(=O)(O)O)cc1)NC(C)=O)C(N)=O` (Ac-[pY]RPQAM-NH2) showed an IC50 of 1 µM.
`CC(=O)N[C@@H](Cc1ccc(OP(=O)(O)O)cc1)C(=O)N[C@@H](CO)C(=O)N[C@@H](CC(=O)O)C(=O)NCC(=O)N[C@@H](CC(N)=O)C(=O)N[C@@H](Cc1ccccc1)C(N)=O` (Ac-[pY]SDGNF-NH2) showed an IC50 greater than 150 µM.
Compound `CC(=O)N[C@@H](Cc1ccc(OP(=O)(O)O)cc1)C(=O)N[C@@H](CO)C(=O)N[C@H](C(=O)N[C@H](C(=O)N[C@H](C(=O)N[C@@H](Cc1c[nH]cn1)C(N)=O)C(C)C)C(C)C)[C@@H](C)O` (Ac-[pY]STVVH-NH2) has an IC50 greater than 150 µM.
Work on `CC(=O)N[C@@H](Cc1ccc(OP(=O)(O)O)cc1)C(=O)N[C@H](C(=O)N[C@@H](CC(C)C)C(=O)N[C@@H](CCC(N)=O)C(=O)NCC(=O)N[C@@H](CC(=O)O)C(N)=O)C(C)C` (Ac-[pY]VLQGD-NH2) yielded an IC50 of 8 µM.
